One assay addresses T1, USP8 Rhod domain (Homo sapiens, UniProt P40818).
T1 construct: USP8 Rhod (174–317) (UniProt: P40818); GST (cleaved yes); made in house; host or cells: Escherichia coli BL21-Gold (DE3)
T1 sequence (P40818 174-317): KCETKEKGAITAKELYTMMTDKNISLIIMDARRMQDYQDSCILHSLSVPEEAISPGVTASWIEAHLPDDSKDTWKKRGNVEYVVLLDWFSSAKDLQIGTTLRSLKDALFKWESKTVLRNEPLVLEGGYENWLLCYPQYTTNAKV
The assay can be described thus: Peptide-phage display-based deep mutational scanning (DMS), USP8 Rhod domain. Format: binding. The settings on record: ProP-PD DMS, bait USP8_Rhodanese__P40818_174_317; pair wild-type GMERVLGGLSSPLRLL (wt_00013) vs mutant; positive where wild-type fraction is higher, negative where mutant fraction is higher. Here is the method: Four rounds of phage selections were carried out using the second generation human disorderome library or the constructed deep mutational scanning library. At least three individual replicates were used for each bait protein. 10 µg of GST-tagged proteins or GST control (diluted in PBS from the stock of proteins kept in the purification elution buffer) were immobilized in 100 µL PBS on a 96-well MaxiSorp (Nunc) plate overnight at 4 °C. The plates were incubated with blocking buffer (with 0.5% BSA in PBS) for 1 h at 4 °C followed by washing with 0.05% Tween 20 in PBS four times. The naïve phage library (10^11 CFU) was diluted in 1/5th volume PEG/NaCl (20% PEG-8000, 0.4 M NaCl) and 1X PBS, incubated on ice for 10 min and centrifuged at 10,000 [drawing 3] g for 10 min. The pellet was resuspended in the volume of PBS (100 µL/ well). The GST-coated control plate was incubated with 100 µL library per well in PBS for 1 h at 4 °C to remove non-specific binders. The supernatant was transferred to the target wells and incubated for 2 h at 4 °C. The wells were washed five times with 0.05% Tween 20 in PBS and the bound phages were eluted with 100 µL per well log-phase E. coli OmniMAX by incubating at 37° C while shaking. After 30 min, M13KO7 helper phages were added and incubated for an additional 45 min. The bacterial cultures were transferred to 1 mL 2YT supplemented with 100 µg/mL carbenicillin, 30 µg/mL kanamycin and 0.3 mM IPTG and grew overnight at 37 °C while shaking. The following day the cultures were centrifuged for 10 min at 2,000 [drawing 4] g, 4 °C. 1/10th volume of 10 [drawing 5] PBS was added to adjust the pH and heated at 65 °C for 10 min. The phage pools from each round were used as in-phages for the next round of selections.
The samples were prepared for NGS as previously described. […] The PCR products were normalized with 25 µL Mag-bind Total Pure NGS beads (Omega Biotek) and 10 µL of each eluted sample (Qiagen Elution Buffer) was pooled and cleaned-up with a PCR purification kit (Qiagen). The PCR product was confirmed by 2% agarose electrophoresis and the band was extracted with QIAquick Gel extraction Kit (Qiagen) and eluted with 30 µL TE buffer. The dsDNA was quantified using QuantiT PicoGreen dsDNA Assay Kit (Thermo Fisher) and sent for NGS (Illumina MiSeq v3, 1 × 150 bp read setup, 20% PhiX, NGI SciLifeLab facility, Sweden). The NGS data were demultiplexed, adapter regions were trimmed and sequences with an average quality of at least 20 were translated to peptide sequences. The NGS data were analysed using custom Python scripts. The total read NGS counts for each selection experiment of each peptide sequence were compiled and annotated in PepTools (https://slim.icr.ac.uk/tools/peptools/). Since ProP-PD is in essence a competition assay, the possibility of the input phage library influencing the selection outcome was explored. […] Pearson correlation coefficient and p-value were calculated using Python’s SciPy library.
With GMERVLGGFSSPLRLL, the hit_pair_ratio amounted to 53.66.

For the sequence GMERVLGGGSSPLRLL, the hit_pair_ratio is on record as 20.85.

GMERVLGGHSSPLRLL came in with a hit_pair_ratio of 49.95.

On to GMERVLGGKSSPLRLL, for which the hit_pair_ratio was determined as 20.99.

As for GMERVLGGLASPLRLL, the hit_pair_ratio came out at 321.97.

GMERVLGGLESPLRLL: the hit_pair_ratio is on record as 131.67.

GMERVLGGLHSPLRLL: the hit_pair_ratio was found to be 1.07.

GMERVLGGLISPLRLL: the hit_pair_ratio came out at 321.97.

Turning to GMERVLGGLPSPLRLL, the hit_pair_ratio came out at 131.67.

In turn, GMERVLGGLSAPLRLL had a hit_pair_ratio of 160.99.

GMERVLGGLSDPLRLL showed a hit_pair_ratio of -19.71.

As to GMERVLGGLSEPLRLL, the hit_pair_ratio is 15.92.

In turn, GMERVLGGLSFPLRLL had a hit_pair_ratio of 80.49.

For the sequence GMERVLGGLSNPLRLL, the hit_pair_ratio was -9.56.

The sequence GMERVLGGLSRPLRLL returned a hit_pair_ratio of 321.97.

The sequence GMERVLGGLSSLLRLL showed a hit_pair_ratio of 321.97.

For GMERVLGGLSSPARLL, the hit_pair_ratio came out at 46.00.

In the case of GMERVLGGLSSPDRLL, the hit_pair_ratio was 54.66.

In turn, GMERVLGGLSSPERLL gave a hit_pair_ratio of 4.36.

Regarding GMERVLGGLSSPFRLL, the hit_pair_ratio turned out to be 65.83.

GMERVLGGLSSPGRLL: the hit_pair_ratio is reported as 32.20.

For the sequence GMERVLGGLSSPHRLL, the hit_pair_ratio was found to be 80.49.

Sequence GMERVLGGLSSPKRLL came in with a hit_pair_ratio of 321.97.

On to GMERVLGGLSSPLALL, for which the hit_pair_ratio is listed as -3.54.

GMERVLGGLSSPLELL returned a hit_pair_ratio of 107.32.

Consider GMERVLGGLSSPLFLL, for which the hit_pair_ratio is recorded as 1.48.

GMERVLGGLSSPLGLL had a hit_pair_ratio of 107.32.

On to GMERVLGGLSSPLHLL, for which the hit_pair_ratio was 5.88.

Turning to GMERVLGGLSSPLILL, the hit_pair_ratio is given as -3.18.

As for GMERVLGGLSSPLKLL, the hit_pair_ratio is 5.73.

The sequence GMERVLGGLSSPLLLL displayed a hit_pair_ratio of 2.57.

For the sequence GMERVLGGLSSPLMLL, the hit_pair_ratio is given as -10.76.

GMERVLGGLSSPLNLL gave a hit_pair_ratio of 38.62.

As for GMERVLGGLSSPLQLL, the hit_pair_ratio is listed as 59.13.

In turn, GMERVLGGLSSPLRAL showed a hit_pair_ratio of 160.99.

In the case of GMERVLGGLSSPLRGL, the hit_pair_ratio turned out to be 160.99.

As for GMERVLGGLSSPLRIL, the hit_pair_ratio turned out to be 321.97.

As for GMERVLGGLSSPLRLA, the hit_pair_ratio was 131.67.

GMERVLGGLSSPLRLF came in with a hit_pair_ratio of 80.49.

Take GMERVLGGLSSPLRLG: the hit_pair_ratio is listed as 321.97.

In turn, GMERVLGGLSSPLRLH gave a hit_pair_ratio of 8.26.

GMERVLGGLSSPLRLI had a hit_pair_ratio of 4.34.

GMERVLGGLSSPLRLM yielded a hit_pair_ratio of -1.86.

Turning to GMERVLGGLSSPLRLN, the hit_pair_ratio was 321.97.

Consider GMERVLGGLSSPLRLP, for which the hit_pair_ratio amounted to 160.99.

With GMERVLGGLSSPLRLQ, the hit_pair_ratio worked out at 26.83.

The sequence GMERVLGGLSSPLRLT registered a hit_pair_ratio of 131.67.

Sequence GMERVLGGLSSPLRLV had a hit_pair_ratio of 40.25.

With GMERVLGGLSSPLRNL, the hit_pair_ratio stood at 160.99.

Take GMERVLGGLSSPLRVL: the hit_pair_ratio came out at 160.99.

For the sequence GMERVLGGLSSPLSLL, the hit_pair_ratio is recorded as -1.20.

In turn, GMERVLGGLSSPLTLL came in with a hit_pair_ratio of 1.50.

GMERVLGGLSSPLVLL: the hit_pair_ratio is on record as -21.41.

GMERVLGGLSSPLWLL showed a hit_pair_ratio of -1.66.

In turn, GMERVLGGLSSPLYLL yielded a hit_pair_ratio of 5.39.

GMERVLGGLSSPMRLL came in with a hit_pair_ratio of 7.90.

Regarding GMERVLGGLSSPNRLL, the hit_pair_ratio was determined as 321.97.

In turn, GMERVLGGLSSPPRLL returned a hit_pair_ratio of 160.99.

Consider GMERVLGGLSSPRRLL, for which the hit_pair_ratio was found to be 160.99.

Consider GMERVLGGLSSPSRLL, for which the hit_pair_ratio is reported as 1.14.

GMERVLGGLSSPTRLL: the hit_pair_ratio stood at 1.41.

In turn, GMERVLGGLSSPVRLL yielded a hit_pair_ratio of 5.59.

With GMERVLGGLSSPWRLL, the hit_pair_ratio came to 2.81.

Consider GMERVLGGLSSPYRLL, for which the hit_pair_ratio is listed as 16.65.

With GMERVLGGLSSQLRLL, the hit_pair_ratio amounted to 321.97.

As to GMERVLGGLSSRLRLL, the hit_pair_ratio is 160.99.

Consider GMERVLGGLSSSLRLL, for which the hit_pair_ratio amounted to 8.62.

Regarding GMERVLGGLSSTLRLL, the hit_pair_ratio is 131.67.

Take GMERVLGGLSTPLRLL: the hit_pair_ratio was determined as 2.98.

GMERVLGGLSVPLRLL showed a hit_pair_ratio of 93.45.

Sequence GMERVLGGLSYPLRLL returned a hit_pair_ratio of 321.97.

As to GMERVLGGLVSPLRLL, the hit_pair_ratio is on record as 321.97.

Sequence GMERVLGGMSSPLRLL had a hit_pair_ratio of 21.15.

GMERVLGGRSSPLRLL registered a hit_pair_ratio of 160.99.

Still in this assay, the particulars now being: ProP-PD pairs, bait USP8_Rhodanese__P40818_174_317; wild-type/mutant pair, wild type KIAA1614 569-584 GMERVLGGLSSPLRLL (wt_00013).
Sequence GMELVLGGLSSPLRLL showed a hit_pair_ratio of 160.99.

The sequence GMENVLGGLSSPLRLL registered a hit_pair_ratio of 107.32.

For the sequence GMERALGGLSSPLRLL, the hit_pair_ratio is given as 4.69.

As to GMERDLGGLSSPLRLL, the hit_pair_ratio is recorded as -11.89.

In turn, GMERELGGLSSPLRLL showed a hit_pair_ratio of -10.69.

The sequence GMERFLGGLSSPLRLL showed a hit_pair_ratio of -9.37.

In turn, GMERGLGGLSSPLRLL gave a hit_pair_ratio of -1.02.

GMERHLGGLSSPLRLL showed a hit_pair_ratio of -4.18.

Take GMERILGGLSSPLRLL: the hit_pair_ratio was 20.85.

GMERKLGGLSSPLRLL: the hit_pair_ratio is listed as 30.82.

For the sequence GMERLLGGLSSPLRLL, the hit_pair_ratio is 5.91.

Sequence GMERMLGGLSSPLRLL yielded a hit_pair_ratio of -1.32.

GMERNLGGLSSPLRLL showed a hit_pair_ratio of -2.85.

GMERPLGGLSSPLRLL came in with a hit_pair_ratio of 1.07.

GMERQLGGLSSPLRLL: the hit_pair_ratio was -6.89.

As to GMERRLGGLSSPLRLL, the hit_pair_ratio is 16.75.

GMERSLGGLSSPLRLL gave a hit_pair_ratio of 12.88.

On to GMERTLGGLSSPLRLL, for which the hit_pair_ratio is -5.12.

GMERVFGGLSSPLRLL displayed a hit_pair_ratio of 321.97.

GMERVGGGLSSPLRLL: the hit_pair_ratio is listed as 29.56.

In turn, GMERVIGGLSSPLRLL had a hit_pair_ratio of -3.21.

As for GMERVLAGLSSPLRLL, the hit_pair_ratio is recorded as -1.35.

The sequence GMERVLDGLSSPLRLL displayed a hit_pair_ratio of -20.23.

Consider GMERVLEGLSSPLRLL, for which the hit_pair_ratio is reported as -2.19.

As for GMERVLFGLSSPLRLL, the hit_pair_ratio is listed as -3.55.

Turning to GMERVLGDLSSPLRLL, the hit_pair_ratio was 321.97.

In turn, GMERVLGGASSPLRLL displayed a hit_pair_ratio of 1.62.

On to GMERVLGGDSSPLRLL, for which the hit_pair_ratio is recorded as -19.26.

For GMERVLGGESSPLRLL, the hit_pair_ratio is given as -80.43.

As for GMERVLGGISSPLRLL, the hit_pair_ratio is 4.20.

As to GMERVLGGNSSPLRLL, the hit_pair_ratio is 1.15.

As for GMERVLGGPSSPLRLL, the hit_pair_ratio was determined as 2.15.

Consider GMERVLGGQSSPLRLL, for which the hit_pair_ratio was -8.29.

In the case of GMERVLGGSSSPLRLL, the hit_pair_ratio came to 2.67.

Values taken from publication PMC12057046, “Elucidation of short linear motif-based interactions of the MIT and rhodanese domains of the ubiquitin-specific protease 8” (Biology Direct, 2025).
